From US9844521B2, “Pharmaceutical composition comprising ginger extract or shogaol” (UNIVERSITY-INDUSTRY COOPERATION GROUP OF KYUNG HEE …, priority 2008, dated 2017)

System: ICR mice
Test: Passive avoidance task (cognitive ability enhancement)
Format: in vivo, mouse
Conditions: 5 mg/kg oral once per day for 3 days; control 165.50±23.39 seconds; p<0.05
Experimental: Male ICR mice having a weight of 25-28 g were obtained and nurtured in an animal laboratory at Kyunghee University Graduate School of East-West Medicine Science for 7 days for adaptation. Water and feed were freely supplied, and the temperature (22±2[…]), humidity (53±3%), and a cycle of brightness and darkness (12 hours) were automatically controlled. Shogaol used was obtained from WAKO Company (Japan).
Mice were divided into two groups, each of which consisted of 10 mice. A first group (control) was orally administered with 10% dimethyl sulfoxide in an amount of 5 ml per mouse weight kg for 3 days, and a second group was orally administered with 5 mg/kg of shogaol dissolved in 10% dimethyl sulfoxide for 3 days. […]
In a test device having an inner structure divided into two identical spaces with a door therebetween, on a first day, one space was bright and the other space was dark, and a test animal was allowed to stay in the bright space for 10 seconds and then the door was opened, and when the test animal moved toward the dark space, 0.25 mA of an electrical stimulation was applied to the feet of the test animal. After 24 hours, the same passive avoidance task was performed and a time during which the test animal stayed in the light space was measured. […]

CCCCC/C=C/C(=O)CCc1ccc(O)c(OC)c1 [shogaol, (E)-1-(4-hydroxy-3-methoxyphenyl)dec-4-en-3-one]
latency time: 240.63 ± 24.14 s
